Laboratory results: article PMC11121470, “Leveraging the Fragment Molecular Orbital and MM-GBSA Methods in Virtual Screening for the Discovery of Novel Non-Covalent Inhibitors Targeting the TEAD Lipid Binding Pocket” (International Journal of Molecular Sciences, 2024)
“Also recorded” adds a separate entry of the source. Read-outs that look alike come from different tables or passages of the source.

Key:
TEAD [1] = test: TEAD luciferase reporter assay in MCF7 cells; type: cell-based; conditions: for IC50: Homo sapiens
Method: (§1) Stable cell lines, namely MCF7 cell TEAD luciferase cells, were maintained in Dulbecco’s modified Eagle medium (DMEM) containing 10% fetal bovine serum, penicillin, and streptomycin, at 37 °C, in a humidified incubator containing 5% CO2. To construct an MCF7-TEAD luciferase stable cell line, MCF7 cells were infected with a TEAD luciferase reporter lentivirus using polybrene (Millipore, Burlington, MA, USA) and then selected with puromycin. The stable cell lines NCI-[…] and NCI-H28 were maintained in Roswell Park Memorial Institute (RPMI) medium.
TEAD luciferase reporter MCF7 cells were seeded into 96-well white plates (3 × 10^4 cells per well). The medium was replaced with DMEM without fetal bovine serum (FBS; 100 μL per well), and the cells were treated with various concentrations of compounds (0.001–10 μmol/L) for 24 h. Fifty microliters of the medium containing compounds was removed from each well, following which 50 μL of FBS in 10% DMEM was added to the cells and incubated for 6 h. Luciferase activity was measured using the One-Glo® Luciferase Assay Kit from Promega (Madison, WI, USA). A small portion of the medium was removed (60 μL) from each well, and 40 μL of One-Glo® Luciferase assay buffer containing reagent was added in its place. Luminescence was measured using a VICTOR® Nivo™ multimode microplate reader (PerkinElmer, Waltham, MA, USA) and normalized to the results of the vehicle.

H28 cancer cell line = test: Cell viability assay (CellTiter-Glo 2.0), H28; type: cell-based; conditions: for IC50: Homo sapiens, NCI-H28, H28 cells, 144 h, n = 3
Method: as §1
(§2) Cells were seeded into 96-well plates (1 × 10^3 cells per well) and changed to RPMI with 1% FBS, and then treated with various concentrations (0.0001–10 μmol/L) of compounds (MGH-CP1, BC-010, BC-011, and BC-013) for 144 h. The medium was replaced with 1% FBS + RPMI containing compounds every 3 d. Cell viability was measured using the CellTiter-Glo® 2.0 Cell Viability Assay Kit from Promega. Before the viability was measured, the drug treatment medium was removed and replaced with 50 μL of FBS-free RPMI and 50 μL of CellTiter-Glo® 2.0 reagent. The cells with medium replacement were incubated for 1 h at room temperature, to prevent exposure to light. Luminescence was measured using a VICTOR® Nivo™ multimode microplate reader (PerkinElmer) and normalized to the results of the vehicle.

H226 cancer cell = test: Cell viability assay (CellTiter-Glo 2.0), H226; type: cell-based; conditions: Homo sapiens, NCI-H226, 144 h, H226 cells, n = 3
Method: as §1, §2

TEAD [2] = conditions: cited from earlier work
TEAD [3] = conditions: cited from earlier work; remark: listed apart in the source
TEAD2 = biological target: TEAD2; set-up: method as in PMID 26592798; conditions: reference compounds of Figure 1; cited from earlier work
[4] = system: TEAD target genes Ctgf and Cyr61; test: mRNA expression of TEAD target genes by qRT-PCR in H226 cells; type: cell-based; conditions: 24 h, 1, 5 and 10 μM, n = 3
Method: H226 cells were seeded at a density of 1 × 10^5 cells/well into a 12-well plate. After treatment with various concentrations (1, 5, and 10 μM) of the compounds, the cells were incubated at 37 °C for 24 h. RNA extraction was performed using the RNeasy Plus Mini Kit (QIAGEN, Hilden, Germany), as per the manufacturer’s protocol. Extracted RNA was quantified using a NanoDrop™ One Microvolume UV–Vis Spectrophotometer (Thermo Fisher, Waltham, MA, USA). cDNA was synthesized using 1000 ng of quantified RNA and an iScript™ cDNA Synthesis Kit (Bio-Rad, Hercules, CA, USA). qRT-PCR was carried out using PowerUp™ SYBR™ Green Master Mix (Thermo Fisher) and primers (hCTGF-F: CCAATGACAACGCCTCCTG, hCTGF-R: TGGTGCAGCCAGAAAGCTC, hCYR61-F: […], hCYR61-R: […], hβ-actin-F: […], hβ-actin-R: […]), with the results normalized to those of the vehicle.

[5] = 1 nM to 10 μM, n = 2, read-out: IC50, TEAD reporter luciferase assay
[6] = reference compounds of Figure 1
[7] = Vivace compounds, ref 45 (WO202097389A1)
[8] = reference compounds of Figure 1 and FMO section

## COC(=O)c1ccc(OC)c(COc2ccc(C(F)(F)F)cc2)c1 [BC-013]
TEAD [1]; [5]
  IC50: 417 nM
H28 cancer cell line
  IC50: 9320 nM
H226 cancer cell
  IC50: 2250 nM

## NNC(=O)c1cccc(COc2ccc(Cl)cc2)c1 [BC-005]
TEAD [1]
  TEAD reporter luciferase activity (in words): increased

## O=C(O)c1cnc2c(cnn2C2CCCC2)c1 [Fragment 1(Merck)]
TEAD [2]; [6]
  IC50: 16000 nM

## C[C@H](NC(=O)c1ccc2c(-c3ccc(C(F)(F)F)cc3)cccc2c1)c1ccccn1 [VT-104]
TEAD [3]; [7]
  IC50: 10 nM

## COc1ccc(C(=O)NN)cc1COc1ccc(Cl)cc1 [BC-003]
TEAD [1]
  TEAD reporter luciferase activity (in words): retained the same activity as BC-001
TEAD [1]; [5]
  IC50: 3990 nM

## COc1ccc(C(=O)NN)cc1COc1ccc(C(F)(F)F)cc1 [BC-010]
TEAD [1]; [5]
  IC50: 768 nM
H28 cancer cell line
  IC50: 9100 nM
H226 cancer cell
  IC50: 930 nM

## C=CC(=O)Nc1ccc(C)c(Oc2ccc(Cl)cc2)c1 [K–975]
TEAD [2]; [8]
  IC50: < 100 nM

## O=C(O)c1ccccc1Nc1cccc(C(F)(F)F)c1 [Flufenamic acid, flufenamic acid]
TEAD2
  Kd: 73000 nM

## O=C(CSc1nnc[nH]1)Nc1ccc(C23CC4CC(CC(C4)C2)C3)cc1 [MGH-CP1, reference compound]
TEAD [1]; [5]
  IC50: 219 nM
TEAD [2]; [8]
  IC50: 1920 nM
H28 cancer cell line
  IC50: 1720 nM
H226 cancer cell
  IC50: 1190 nM

## COc1ccc(C(N)=O)cc1COc1ccccc1 [BC-007]
TEAD [1]; [5]
  IC50: 5610 nM

## CC(NC(=O)c1cnc2c(-c3ccc(C(F)(F)F)cc3)cccc2c1)c1ccccn1 (centres unmarked) [VT-105]
TEAD [2]; [8]
  IC50: 10.4 nM

## COc1ncc(NS(C)(=O)=O)cc1/C=C/C1CCC(F)(F)CC1 [Compound 2]
TEAD [2]; [8]
  IC50: 263 nM

## COc1ccc(C(N)=O)cc1COc1ccc(C(F)(F)F)cc1 [BC-011]
TEAD [1]; [5]
  IC50: 72.4 nM
H28 cancer cell line; H28 cancer cell line
  Effect on viability (in words): did not show any inhibitory effects
H28 cancer cell line
  IC50: > 10000 nM
[4]
  Ctgf mRNA expression: significantly downregulated; also recorded: decreased
  Cyr61 mRNA expression: significantly downregulated; also recorded: decreased
H226 cancer cell
  IC50: 488 nM

## COc1c(C)cc(N2C[C@@H](O)[C@@H](O)C2=O)cc1/C=C/c1ccc(Cl)cc1 [Compound 1 (Genentech)]
TEAD [2]; [6]
  IC50: 2800 nM

## O=C(Nc1ccccc1)N1CCN(C(=O)c2cccc(OCCC3CCCCC3)c2)CC1 [TM2]
TEAD [2]; [6]
  IC50: 152 nM

## COC(=O)c1ccc(OC)c(COc2ccccc2)c1 [BC-009]
TEAD [1]; [5]
  IC50: 2610 nM

## COc1ccc(C(=O)O)cc1COc1ccccc1 [BC-008]
TEAD [1]; [5]
  IC50: > 10000 nM

## C[C@@H](CN(C)C)NC(=O)c1ccc2c(-c3ccc(C(F)(F)F)cc3)cccc2c1 [EX64]
TEAD [3]; [7]
  IC50: 1000 to 3000 nM

## COc1ccc(C=C(C#N)C#N)cc1COc1cc(C)c(Cl)c(C)c1 [BC-004]
TEAD [1]
  TEAD reporter luciferase activity (in words): did not exhibit any activity
TEAD [1]; 1 nM to 10 μM, n = 2, printed in figure as 10uM<, read-out: IC50, TEAD reporter luciferase assay
  IC50: > 10000 nM

## COc1ccc(C(=O)NN)cc1COc1ccc(Br)cc1 [BC-002]
TEAD [1]
  TEAD reporter luciferase activity (in words): retained the same activity as BC-001
TEAD [1]; [5]
  IC50: 2890 nM

## C=CC(=O)N1C[C@@H](n2cc(-c3cccnc3)nn2)[C@H](OCc2ccc(C(F)(F)F)cc2)C1 [MYF–03–69]
TEAD [2]; [8]
  IC50: 385 nM

## Cn1cc2c3cc(C(=O)O)ccc3n(-c3ccc(F)cc3)c2n1 [Merck_20]
TEAD [3]; Merck compounds, ref 40 (WO2021224291A1)
  IC50: 1900 nM

## Cn1cc2c3cc(C(=O)O)ccc3n(-c3ccc(C(F)(F)F)cc3)c2n1 [MSC-4106]
TEAD [2]; [8]
  IC50: 4 nM

## COc1ccc(C(=O)NN)cc1COc1ccc(Cl)c(C)c1 [BC-001]
TEAD [1]; [5]
  IC50: 3680 nM
TEAD [1]; read-out: IC50, reporter assay
  IC50: 3700 nM

## COc1ccc(C(=O)NN)cc1COc1ccccc1 [BC-006]
TEAD [1]; [5]
  IC50: 1520 nM

## O=C(O)c1ccccc1Nc1cccc(Br)c1 [Bromofenamic acid, bromofenamic acid]
TEAD2
  Kd: 234000 nM

## O=C(CCl)c1ccccc1Nc1cccc(C(F)(F)F)c1 [TED–347]
TEAD [2]; reference compound of Figure 1
  EC50: 5900 ± 400 nM

## COc1ccc(C(=O)O)cc1COc1ccc(C(F)(F)F)cc1 [BC-012]
TEAD [1]; [5]
  IC50: 8900 nM
